Consider five molecules from patent US20240307453A1, “METHODS FOR CONTROLLING BLEEDING IN A SUBJECT AFFLICTED WITH HERMANSKY PUDLAK SYNDROME USING PLATELET DERIVATIVE COMPOSITIONS” (Cellphire, Inc., priority 2023, published 2024).

One assay has as its system washed platelets (WPS). As to the kind of experiment: Mixed aggregation of washed FPH with washed platelets (WPS) with and without EDTA and agonists. The class given is cell-based, human. As to conditions: 5 mM EDTA. As to the method: This was repeated 5 times. […] In one of the duplicates, EDTA was added to achieve a 5 mM concentration. […] These samples were prepared immediately prior to running on the PAP-8E Platelet Aggregometer. The different agonist were prediluted in HMTA according: arachidonic acid (Helena Biosciences, Helena-biosciences.com) 1:10 in HMTA, TRAP-6 (Tocris, tocris.com) by adding 7.5 μl to 292.5 μl HMTA.
The PAP-8E Platelet Aggregometer was turned on and samples were incubated with stirring for 10 minutes at 37° C. for all mixed aggregation experiments. The samples with HMTA was used as a control for agonists used in aggregation. The following agonists were used to induce aggregation in samples: 10 μg/ml collagen (Helena Biosciences, Helena-biosciences.com), 10U/ml thrombin (Helena Biosciences, Helena-biosciences.com), 10 μg/ml arachidonic acid, and 10 μM TRAP-6. 225 μl of the samples were added to cuvettes by reverse pipetting and inserted in the channels. Cuvettes were transferred from the warming wells to the testing wells. The test was started and 25 μl of each agonist was added to the appropriate cuvettes when the timer for the channel reached 8:00 minutes. HMTA was added in place of the agonist to the first channel in each module. Once measurements were completed for each agonist, the samples were transferred to a microcentrifuge tube and AcT count was taken. […]

Assay [1] concerns fibrinogen, GPIIIa (CD61), complexed GPIIb/IIIa (CD41). As to conditions: 5 mM EDTA. As to the method:
EDTA (Sigma Aldrich, sigmaaldrich.com) was added to one of the duplicates to achieve a 5 mM concentration. […] Stain volumes were as follows: Unstained: 10 μl of sample and 20 μl HMTA, 9F9: 10 μl of sample, 5 μl antibody, and 15 μl HMTA, CD41: 5 μl of sample and 12 μl antibody, and CD61: 10 μl of sample, 10 μl antibody, and 10 μl HMTA. Stained samples were incubated for 20 minutes for 9F9, CD61, and vWF and 5 minutes for CD41. 470 μl of the samples were added to 9F9 and CD61 stains and 233 μl of the samples were added to CD41 stains. 100 μl of each sample was transferred to wells in a 96-well plate. All samples were measured using the Quanteon flow cytometer.

For a further assay, the target named is T1, FXa (Homo sapiens, UniProt P00742).
T1 construct: tissue Octophrama (so in the source); host or cells: Octaplas plasma mixed with FPH
As to the kind of experiment: FPH thrombin generation response to Factor X blocking by rivaroxaban. Type of assay: biochemical. Particulars: dose dependent blocking of Factor X. How it is done:
Rivaroxaban (Cayman Chemical, caymanchem.com) was diluted in TGA dilution buffer to 0 μg/ml, […], 350 ng/ml, and 70 ng/ml. 60 mM GPRP (BACHEM, bachem.com), thrombin (Sigma Aldrich, sigmaaldrich.com) and Octoplas (Octophrama, octopharma.com) were thawed according to manufacturer's guidelines. CLARIOstarPlus was used to perform TGA. A master mix of Octaplas, PRP reagent (Diagnostica Stago, Cat. No. 86196), and GPRP was prepared in a ratio of 68:15:5, respectively. Flu substrate and Fluo-buffer were combined according to manufacturer's guidelines to create FluCa (Diagnostica Stago, stago.com). Master mix and FluCa solution were placed in the 37° C. air incubator with agitation for 45±5 minutes. […] 10 μl of each sample was dispensed into selected wells of a 96-well plate (Corning, corning.com) by reverse pipetting. TGA dilution buffer for thrombin was used in the thrombin standard ladder. […] CLARIOstarPlus injectors 1 and 2 were primed with master mix and FluCa solution with 250 μl, then the injector was placed in the active position. The CLARIOstarPlus TGA program was loaded with parameters for TGA assay with injectors set to add 90 μl of master mix and 40 μl of FluCa solution to each well. Plate was inserted to be read.

The subject of assay [2] is FPH aggregation (GpIIbIIIa). As to conditions: 5 mM MgCl2, FPH 250 k/μL, tirofiban present.
Experimental: A master mix of FPH or APU was prepared by combining cells dosed at 250 k/μL with HMTA to arrive at enough volume to fill 225 μl of sample into 8 cuvettes, plus extra buffer volume if necessary. 225 μl of master mix was transferred to cuvettes as specified along with a magnetic stir bar in each cuvette. […] The groups tested were as follows. (+) indicates the presence while (−) indicates the absence of the specified reagent: • 0.32 mM DMSO−/5 mM Mg−/1 mM Tiro− (negative control) • 0.32 mM DMSO+/5 mM Mg−/1 mM Tiro− (negative control) • 0.32 mM DMSO−/5 mM Mg+/1 mM Tiro− (positive control) • 0.32 mM DMSO+/5 mM Mg+/1 mM Tiro− (positive control) • 0.32 mM DMSO+/5 mM Mg−/1 mM Tiro− (#of samples=2) • 0.32 mM DMSO+/5 mM Mg−/1 mM Tiro− (#of samples=2)
A further assay has as its target T2, GpIIbIIa receptor (Homo sapiens, UniProt P05106+P08514).
T2 construct: endogenous in cells; host or cells: FPH (freeze-dried human platelet derivatives); in A8 also washed platelets from healthy donors
As to the kind of experiment: Mixed aggregation of washed FPH with washed platelets with and without RGDS. As to conditions: 1 mM RGDS. Type of assay: cell-based. How it is done: For one of the replicates of each, RGDS was added to achieve a 1 mM concentration. […] The mixture was prepared immediately prior to running on the PAP-8E Platelet Aggregometer. PAP-8E was turned on and samples were incubated with stirring for 10 minutes at 37° C. and HMTA was used as a control for collagen agonist used in aggregation. Stir bars were added to cuvettes and 225 μl of sample was added to cuvettes by reverse pipetting and inserted into channels. Cuvettes were then transferred from warming wells to the testing wells. Run was started for each channel with 10 seconds in between. 25 μl of collagen (Helena Biosciences, helenabiosciences.com) was added to appropriate cuvettes when the timer for the channel reached 8:00 minutes. HMTA was added in place of the agonist to the first channel as a control. After measurement was completed for collagen agonist, each sample was transferred to a microcentrifuge tube and AcT count was taken.

The test system of assay [3] is FPH aggregation (surface fibrinogen). Kind of assay: MgCl2 aggregation dose response after plasmin treatment of FPH. As to conditions: 0, 2, 5, 10 mM MgCl2, plasmin 1 hour. Type of assay: cell-based, human. How it is done:
Both master mixes were incubated at room temperature with agitation for 1 hour. […] Magnetic stir bars were placed in all the cuvettes. […] Each concentration of MgCl2 to be tested was prepared in duplicate. […] Plasmin causes the breakdown of fibrinogen.

Assay [4] concerns aggregation of washed FPH with washed platelets. As to the kind of experiment: Mixed aggregation of washed FPH with washed platelets with and without plasmin. The class given is cell-based, human. As to conditions: plasmin-treated washed FPH mixed with WPS. As to the method:
This was repeated for optimal concentration of plasmin added based on flow results. To initiate spontaneous aggregation between the washed platelets and washed FPH the following steps were performed for the mixed samples. Stir bars were added to cuvettes, 225 μl of sample was added to the cuvettes by reverse pipetting and inserted into channels. The cuvettes were transferred from the warming wells to the testing wells. The run was started for each channel with 10 seconds in between. 25 μl of HMTA was added to all cuvettes once the timer for the channel reached 8:00 minutes. After measurements were completed, each sample was transferred to a microcentrifuge tube and AcT counts were taken.

For assay [5], the target named is T3, fibrinogen on the surface of FPH (Homo sapiens, UniProt P02671+P02675+P02679).
T3 construct: endogenous in cells; host or cells: washed FPH (freeze-dried human platelet derivatives)
T3 sequence (P02671 20-629 limits assumed): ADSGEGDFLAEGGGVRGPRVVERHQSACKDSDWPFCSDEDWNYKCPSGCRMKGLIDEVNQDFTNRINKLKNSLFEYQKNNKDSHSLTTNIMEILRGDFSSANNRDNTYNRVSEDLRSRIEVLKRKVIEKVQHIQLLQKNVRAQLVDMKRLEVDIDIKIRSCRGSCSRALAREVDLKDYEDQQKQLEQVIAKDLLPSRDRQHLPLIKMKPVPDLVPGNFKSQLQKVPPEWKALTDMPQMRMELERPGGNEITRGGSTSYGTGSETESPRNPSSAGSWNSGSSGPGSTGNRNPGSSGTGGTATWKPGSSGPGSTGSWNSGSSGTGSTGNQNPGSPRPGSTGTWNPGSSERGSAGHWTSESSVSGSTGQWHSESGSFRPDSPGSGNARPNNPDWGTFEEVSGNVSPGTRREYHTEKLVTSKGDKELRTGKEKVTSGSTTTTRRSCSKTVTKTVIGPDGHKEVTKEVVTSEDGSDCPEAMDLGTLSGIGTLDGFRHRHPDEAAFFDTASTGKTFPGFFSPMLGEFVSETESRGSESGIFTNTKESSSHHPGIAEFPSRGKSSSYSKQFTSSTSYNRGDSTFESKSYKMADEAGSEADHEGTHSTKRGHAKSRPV
T3 sequence (P02675 31-491): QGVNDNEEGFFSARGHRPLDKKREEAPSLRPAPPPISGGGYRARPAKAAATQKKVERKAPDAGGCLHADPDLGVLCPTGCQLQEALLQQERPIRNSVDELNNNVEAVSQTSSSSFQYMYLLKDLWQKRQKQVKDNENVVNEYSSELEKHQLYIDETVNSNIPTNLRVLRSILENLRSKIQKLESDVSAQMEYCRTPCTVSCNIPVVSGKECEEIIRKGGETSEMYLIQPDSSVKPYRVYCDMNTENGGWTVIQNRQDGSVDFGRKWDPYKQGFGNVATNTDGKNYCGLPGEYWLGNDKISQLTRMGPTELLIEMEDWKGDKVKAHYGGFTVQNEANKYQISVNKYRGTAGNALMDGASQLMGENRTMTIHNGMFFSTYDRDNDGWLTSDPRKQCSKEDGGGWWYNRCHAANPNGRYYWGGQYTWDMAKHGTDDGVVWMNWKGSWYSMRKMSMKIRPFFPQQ
T3 sequence (P02679 27-453): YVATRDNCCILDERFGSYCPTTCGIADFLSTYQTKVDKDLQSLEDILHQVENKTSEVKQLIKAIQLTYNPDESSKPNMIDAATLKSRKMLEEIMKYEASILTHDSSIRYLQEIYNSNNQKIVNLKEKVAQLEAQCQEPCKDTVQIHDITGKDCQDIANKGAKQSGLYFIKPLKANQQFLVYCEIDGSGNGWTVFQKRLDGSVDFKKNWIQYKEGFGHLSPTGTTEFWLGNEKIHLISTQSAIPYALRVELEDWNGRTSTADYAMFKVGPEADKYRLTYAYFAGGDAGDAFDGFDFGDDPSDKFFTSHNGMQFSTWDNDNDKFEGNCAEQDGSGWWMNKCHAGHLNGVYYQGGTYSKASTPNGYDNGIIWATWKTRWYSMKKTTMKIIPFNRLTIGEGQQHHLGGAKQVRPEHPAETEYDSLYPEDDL
Kind of assay: Surface marker detection of washed FPH at different plasmin concentrations. The class given is cell-based. Particulars: 0, 1.46, 2.92, 14.6, 29.2 nkat/ml plasmin, 1 hour.

Where [6] appears, read: washed FPH and washed platelets.

T1 sequence (P00742 235-488 limits assumed): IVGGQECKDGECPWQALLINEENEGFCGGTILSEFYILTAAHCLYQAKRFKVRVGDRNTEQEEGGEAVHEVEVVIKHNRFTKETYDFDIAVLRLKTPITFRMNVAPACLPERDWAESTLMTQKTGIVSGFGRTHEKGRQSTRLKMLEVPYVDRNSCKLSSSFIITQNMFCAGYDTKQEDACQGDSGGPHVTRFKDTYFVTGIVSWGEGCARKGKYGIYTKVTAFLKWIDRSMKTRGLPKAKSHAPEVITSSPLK
T1 sequence (P00742 41-179 limits assumed): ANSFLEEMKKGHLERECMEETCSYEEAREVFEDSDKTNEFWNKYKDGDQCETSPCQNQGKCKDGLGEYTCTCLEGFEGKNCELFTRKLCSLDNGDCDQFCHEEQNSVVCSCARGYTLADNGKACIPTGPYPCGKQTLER

Turning to `O=C(O)CN(CCN(CC(=O)O)CC(=O)O)CC(=O)O` [EDTA], the “effect on aggregation between washed FPH and washed platelets” value with washed platelets (WPS) is “prevents aggregation”. In assay [1] (washed FPH), the “Bound fibrinogen with addition of EDTA” value is reported as “decreases slightly”. For the same molecule, in assay [1] (setting [6]), the “CD61 (GpIIIa) signal with addition of EDTA” value was “decreased slightly” and the “drop in the GpIIbIIIa complex (CD41) with addition of EDTA” value was “more than half”.

On to `O=C(NC[C@H]1CN(c2ccc(N3CCOCC3=O)cc2)C(=O)O1)c1ccc(Cl)s1` [Rivaroxaban], for which, on FXa, the “thrombin generation of FPH” value is on record as “decreasing thrombin generation”. The “maximum peak time of thrombin generation of FPH” value on FXa (1:64 dilution) is listed as “increasing maximum peak time”.

Consider `CCCCS(=O)(=O)N[C@@H](Cc1ccc(OCCCCC2CCNCC2)cc1)C(=O)O` [tirofiban], for which the “effect on divalent cation induced aggregation of FPH” value in assay [2] was “abrogated”.

On to “Arg-Gly-Asp-Ser (RGDS; printed: Arg-Gly-Asp-Ser) [GpIIbIIa receptor antagonist RGDS peptide]”, for which, in the assay with GpIIbIIa receptor, the “effect on mixed aggregation of washed FPH and washed platelets” value is given as “inhibited aggregation”; the “fold lower platelet counts in untreated mixed sample in comparison to the treated mixed sample” value was greater than 2 fold.

B1: plasmin: Plasmin causes the breakdown of fibrinogen (protein, UniProt P00747 20-580; P00747 581-810, looked up)
Plasmin heavy chain A: EPLDDYVNTQGASLFSVTKKQLGAGSIEECAAKCEEDEEFTCRAFQYHSKEQQCVIMAENRKSSIIIRMRDVVLFEKKVYLSECKTGNGKNYRGTMSKTKNGITCQKWSSTSPHRPRFSPATHPSEGLEENYCRNPDNDPQGPWCYTTDPEKRYDYCDILECEEECMHCSGENYDGKISKTMSGLECQAWDSQSPHAHGYIPSKFPNKNLKKNYCRNPDRELRPWCFTTDPNKRWELCDIPRCTTPPPSSGPTYQCLKGTGENYRGNVAVTVSGHTCQHWSAQTPHTHNRTPENFPCKNLDENYCRNPDGKRAPWCHTTNSQVRWEYCKIPSCDSSPVSTEQLAPTAPPELTPVVQDCYHGDGQSYRGTSSTTTTGKKCQSWSSMTPHRHQKTPENYPNAGLTMNYCRNPDADKGPWCFTTDPSVRWEYCNLKKCSGTEASVVAPPPVVLLPDVETPSEEDCMFGNGKGYRGKRATTVTGTPCQDWAAQEPHRHSIFTPETNPRAGLEKNYCRNPDGDVGGPWCYTTNPRKLYDYCDVPQCAAPSFDCGKPQVEPKKCPGR
Plasmin light chain B: VVGGCVAHPHSWPWQVSLRTRFGMHFCGGTLISPEWVLTAAHCLEKSPRPSSYKVILGAHQEVNLEPHVQEIEVSRLFLEPTRKDIALLKLSSPAVITDKVIPACLPSPNYVVADRTECFITGWGETQGTFGAGLLKEAQLPVIENKVCNRYEFLNGRVQSTELCAGHLAGGTDSCQGDSGGPLVCFEKDKYILQGVTSWGLGCARPNKPGVYVRVSRFVTWIEGVMRNN
modifications: Plasmin
notes: Plasmin causes the breakdown of fibrinogen
Turning to B1, the “FPH aggregation response to MgCl2 after plasmin treatment” value in assay [3] is given as “no dose dependent response”. For the same molecule, the “effect on aggregation of washed FPH with washed platelets” value in assay [4] is recorded as “inhibits the aggregation”. In assay [5], the “effect on fibrinogen on the surface of FPH” value is “degrades fibrinogen on the surface of FPH”.
